Laboratory results reported in patent US20180193414A1, “COMPOSITIONS AND METHODS FOR TREATING NEUROLOGICAL DISORDERS” (Coda Biotherapeutics, Inc., priority 2015, published 2018).

Experiments:
hM4D(Gi) DREADD = target: T1, hM4D(Gi) DREADD (Homo sapiens, UniProt P08173, A203G/Y113C); settings: cited from earlier work
T1 construct: HA (N); host or cells: primary afferent nociceptors of female C57BL/6 mice transduced in vivo (intraneural AAV6-hSyn-HA-hM4D(Gi)-IRES-mCitrine), as reported by Iyer et al. 2016
T1 sequence (P08173 1-479 Y113C/A203G): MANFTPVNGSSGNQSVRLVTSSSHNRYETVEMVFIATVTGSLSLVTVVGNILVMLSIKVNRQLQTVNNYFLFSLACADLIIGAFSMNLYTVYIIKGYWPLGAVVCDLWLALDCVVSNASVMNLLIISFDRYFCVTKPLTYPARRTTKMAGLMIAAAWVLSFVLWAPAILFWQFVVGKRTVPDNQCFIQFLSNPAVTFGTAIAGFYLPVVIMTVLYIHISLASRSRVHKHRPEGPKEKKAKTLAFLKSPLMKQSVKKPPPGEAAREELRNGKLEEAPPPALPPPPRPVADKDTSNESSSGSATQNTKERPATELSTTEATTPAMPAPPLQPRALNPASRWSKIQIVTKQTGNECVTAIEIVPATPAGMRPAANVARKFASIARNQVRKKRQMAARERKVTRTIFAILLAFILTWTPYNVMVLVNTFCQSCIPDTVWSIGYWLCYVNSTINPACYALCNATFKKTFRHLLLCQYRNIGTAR

[1] = target: T2, human α-1 GlyRM(F207A+A288G) (Homo sapiens, UniProt P23415, A316G/F235A); test: Mechanical withdrawal threshold (von Frey, up-down method) in spared nerve injury (SNI) model; type: in vivo, mice
T2 construct: host or cells: mouse dorsal horn neurons transduced in vivo with the AAV vector
T2 sequence (P23415 29-457 F235A/A316G): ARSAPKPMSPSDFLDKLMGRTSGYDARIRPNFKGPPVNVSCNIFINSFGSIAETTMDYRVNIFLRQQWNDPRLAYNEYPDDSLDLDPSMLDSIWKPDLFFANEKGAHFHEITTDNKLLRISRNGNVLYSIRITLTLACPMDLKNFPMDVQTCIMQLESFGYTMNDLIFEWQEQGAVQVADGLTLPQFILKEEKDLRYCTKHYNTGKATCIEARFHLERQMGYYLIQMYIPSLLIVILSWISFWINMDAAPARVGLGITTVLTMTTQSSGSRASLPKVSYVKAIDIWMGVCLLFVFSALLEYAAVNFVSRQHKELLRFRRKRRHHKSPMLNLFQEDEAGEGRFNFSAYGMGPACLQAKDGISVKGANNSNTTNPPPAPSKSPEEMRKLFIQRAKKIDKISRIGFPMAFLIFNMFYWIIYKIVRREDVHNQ
Source text: The expression cassette containing a human synapsin-1 (hSYN) promoter driving expression of the human α-1 GlyRM(F207A+A288G)-FLAG cDNA was constructed using standard molecular biology techniques (see also, FIG. 5 and SEQ ID NO:1 for description of the vector). This cassette was subcloned into a self-complementary AAV bacmid, purified, transfected into Sf9 insect cells to produce recombinant bacuvlovirus, and then amplified. Sf9 cells were double infected using the amplified recombinant baculovirus containing the hSYN-GlyRM cassette and another recombinant baculovirus containing the Rep and AAV6(Y705+731F+T492V) Cap genes to produce recombinant AAV vectors. These vectors were purified, viral titer was determined using qPCR (2.15e^13 vg/ml), and SDS-PAGE was used to verify the purity of AAV vectors (Virovek).
A dorsal hemilaminectomy was made at the level of the lumbar enlargement to expose two segments (about 1.5-2 mm) of lumbar spinal cord, after which the dura mater was incised and reflected. The viral solution was loaded into a glass micropipette (prefilled with mineral oil). The micropipette was connected to a manual micro-injector mounted on a stereotactic apparatus. The viral solution was targeted to the dorsal horn (left side). Along the rostro-caudal axis within the exposed region, 6 injections of 240 nl each were performed, in an equidistant linear fashion. After each injection, 1 min of resting time was observed and then the muscle layer was sutured, the skin closed with staples, and the animals were allowed to recover with heated-pad before they were returned to their home cages. Animals were perfused for histological analysis after the last behavior test.
To produce mechanical hypersensitivity in a model that mimics a neuropathic pain condition, the spared nerve injury (SNI) model, a validated model of mechanical allodynia was used (Shields et al., 2003, The Journal of Pain, 4, 465-470). This model was produced by the sectioning of the common peroneal and the sural nerves and isolating the tibial branch (see FIG. 7). Mechanical withdrawal threshold was assessed by placing mice on an elevated wire-mesh grid and stimulating the plantar surface of the hindpaw with von Frey filaments. The up-down method of Chaplan & Yaksh was used to determine mechanical thresholds before the spinal cord injection of the AAV-GlyRM. […] The hindpaw ipsilateral and contralateral to the vector injection was tested. […] Motor coordination was tested using an accelerating rotarod (Stoelting, USA) at a maximum speed of 33 rpm. The duration that the mouse spent on the rotarod was recorded, with a cut-off at 300 sec. Each mouse went through three training trials and was tested two hours later. Subsequently, all mice received a single IP injection of ivermectin (15 mg/kg or 10 mg/kg) and mechanical thresholds were again tested using the up-down method at 1, 2, 5, 7, and 13 days post SNI. […] The reversal lasted for at least 5 days. […] Animals were then perfused for histology.

[2] = target: T3, alpha 1 GlyR(F207A-A288G) (Homo sapiens, UniProt P23415, A316G/F235A); test: Thermal withdrawal latency assay (infrared laser on shaved cheek) after trigeminal ganglion AAV injection; type: in vivo, Sprague-Dawley rats
T3 construct: expressed in transfected cells; host or cells: trigeminal ganglion neurons of adult Sprague-Dawley rats, transduced in vivo with AAV
T3 sequence (P23415 29-457 F235A/A316G): T2 sequence (P23415 29-457 F235A/A316G)
Method: On day 0, bilateral trigeminal ganglion injections of 10 microliters AAV vector containing the alpha 1 GlyR(F207A-A288G) transgene were performed in adult Sprague-Dawley rats. Two months following AAV injections, a single IP injection of ivermectin 10 mg/kg was administered to rats. The following day, rats were prepared for the thermal latency assay by shaving the fur off of their cheek, up to but not including the whisker pad. They were then placed in a 2.75 inch diameter×8 inch clear polycarbonate cylinder and allowed to acclimate to the environment. The rats naturally positioned themselves so their snout is just outside of the cylinder opening. Under video monitoring, the rats were then exposed to the beam of a 2W, infrared (808 nm) laser illumination focused to project a target size of approximately 1 mm×0.5 mm on the shaved cheek area. The rats then responded to the heat generated by the laser with an abrupt head position change (withdrawal reflex). The sequence was then repeated up to 10 trials on each side. The latency between the laser illumination onset and the head withdrawal reflex was measured from the video with video editing software allowing for frame by frame analysis.

GLYR(F207A/A288G) = target: T4, GLYR(F207A/A288G) (Homo sapiens, UniProt P23415, A316G/F235A); test: Pain and anxiety behavioral assays in rodent models of chronic pain (CCI or SNI); type: in vivo; settings: rodents with CCI or SNI, intraganglionic or intrathecal AAV6 GlyR(F207A/A288G) vector; 0.1-10.0 mg/kg per day
T4 construct: expressed in transfected cells; host or cells: rodent dorsal root or trigeminal ganglion neurons transduced in vivo with AAV6 vectors
T4 sequence (P23415 29-457 F235A/A316G): T2 sequence (P23415 29-457 F235A/A316G)
Source text: Day 0: Chronic pain is induced in rodent trigeminal ganglia or dorsal root ganglia using an established peripheral nerve injury method such as the chronic constriction injury (CCI, CO/CFA) or spared nerve injury (SNI) models. See Bennett & Xie. Pain. 1988, Decosterd & Woolf Pain. 2000, and Imamura, Kawamoto, & Nakanishi. Exp. Brain Res. 1997. In some instances, nerve injury may occur after viral vector injection.
Day 7: Intraganglionic or intrathecal injection of 10^8-10^10 vector genomes of AAV6(Y705F+Y731F+T492V)-HSYN-GLYR(F207A/A288G)-FLAG or AAV6-GLY(HSYN-GLYR(F207A/A288G)-FLAG in a volume of approximately 1.0-10 μL is performed in one or multiple dorsal root ganglia or trigeminal ganglia using published methods. See Vit, Ohara, Sundberg et al. Mol Pain. 2009 and Towne, Fischer, Kostic, et al. J Neurosci Methods. 2011, and Pertin, et al. Mol Pain. 2009.
Weeks 2-12 post CCI or SNI: Ivermectin is administered via oral gavage (P0), intraperitoneal injection (IP), subcutaneous injection (SC), or in drinking water for a final dose of 0.1-10.0 mg/kg per day. Pain and anxiety behavioral assays are performed to quantify level of analgesia using established nociception assay including operant assays, mechanical allodynia/hyperalgesia via Von Frey filaments, thermal allodynia/hyperalgesia via Hargreaves method, or anxiety behaviors via elevated plus maze. See review Odd-Geir Berge. […]

Row | Compound | mechanical withdrawal thresholds (hM4D(Gi) DREADD; hM4D+ mice (AAV6-hSyn-HA-hM4D(Gi)-IRES-mCitrine intraneural), intraperitoneal administration) | Hargreaves thresholds (thermal sensation) (hM4D(Gi) DREADD; hM4D+ mice, after administration) | duration of analgesia in the SNI model ([1]; mice injected with SWB001, single IP injection of ivermectin (15 mg/kg) (FIG. 7)) | mechanical hypersensitivity (mechanical thresholds, von Frey) ([1]; mice with AAV-GlyRM injected into dorsal horn, SNI, ipsilateral hindpaw, single IP injection 15 mg/kg) | mechanical thresholds after repeat dose ([1]; mice, SNI, AAV-GlyRM, 10 mg/kg IP on the 13th day, after thresholds had returned to post-injury baseline) | mechanical thresholds during follow-up after repeat dose ([1]; mice, SNI, AAV-GlyRM, followed for 48 hours after 10 mg/kg IP) | duration of the reversal of mechanical hypersensitivity ([1]; mice, SNI, AAV-GlyRM, single IP injection 15 mg/kg) | mechanical threshold on the contralateral side (absence of vector) ([1]; mice, contralateral hindpaw without vector, single IP injection 15 mg/kg) | average thermal withdrawal latency ([2]; rats two months after bilateral trigeminal ganglion AAV injection, day after single IP 10 mg/kg, pre-treatment average 2.69 seconds) | hypoalgesic threshold shift in thermal pain sensitivity ([2]; rats, post versus pre IP 10 mg/kg) | improvement in pain related behaviors or anxiety over controls (GLYR(F207A/A288G))
1 | C[N+]1([O-])CCN(C2=Nc3cc(Cl)ccc3Nc3ccccc32)CC1 [CNO, clozapine-N-oxide] | increased mechanical withdrawal thresholds | Strong inhibition of Hargreaves thresholds | – | – | – | – | – | – | – | – | –
2 | ivermectin | – | – | 7 to 10 days | complete reversal of the mechanical hypersensitivity | recovery to non-injury baseline thresholds | thresholds remained at baseline | at least 5 days | no measurable effect | 5.19 s | 92.9% | 10%-500%
